The values below come from publication PMC9106635, “Stimulation of the atypical chemokine receptor 3 (ACKR3) by a small-molecule agonist attenuates fibrosis in a preclinical liver but not lung injury model” (Cellular and Molecular Life Sciences: CMLS, 2022).

The subject of assay [1] is mouse CXCL12 plasma levels. As to the kind of experiment: Mouse CXCL12 plasma determination (Bio-Plex). The assay is classed as in vivo. The note with it: liver fibrosis model, day 28, 45 mg/kg/dose PO QD. On the procedure:
CXCL12 plasma levels were determined using Bio-Plex Pro Mouse Chemokine SDF-1a/CXCL12 (Bio-Rad) according to the manufacturer’s protocol. Prior to the assay mouse plasma samples were centrifuged for 15 min at 1000×g at 4 °C to remove any particulates. A four-fold dilution series of mouse CXCL12, blank samples and 1:5 diluted plasma samples were prepared. A 1:1 mixture of magnetic beads (50 µL/well) and sample (50 µL/well) was added to the 96-well assay plate, which was then sealed and incubated (30 min at RT) on a plate shaker at 850 rpm protected from light. After washing three times with wash buffer 25 µL/well detection antibody was added and the plate was again incubated as described above. The plate was again washed three times (100 µL/well wash buffer) followed by the addition of streptavidin-PE (50 µL/well). The plate was sealed and incubated (10 min at RT) at 850 rpm protected from light. Finally, the plate was again washed three times and the magnetic beads were resuspended in fresh assay buffer (152 µL/well). The plate was sealed and shaken for an additional 30 s before being analyzed with the Bioplex 200 System. Data were analyzed with the Bio-Plex Manager Software.

Assay [2] relates to CCl4-induced liver fibrosis in C57BL/6J mice. As to the kind of experiment: CCl4-induced liver fibrosis model. It is filed as in vivo, mouse. The conditions noted are these: 45 mg/kg/dose PO QD, day 28, vs CCl4 + captisol; P < 0.0001 and P = 0.004. Here is the method: A preclinical mouse model for CCl4-induced liver fibrosis was performed at the Department of Metabolic Health Research, The Netherlands Organisation for Applied Scientific Research (TNO) (Leiden, The Netherlands). Fifty-two male C57BL/6J mice were matched on body weight prior to the study and divided into five groups (experimental study design, Supplementary Figure S1a). Starting at day 0, 10–12-week-old mice were intraperitoneally (i.p.) injected (three times a week) with mineral oil (group 1) or CCl4 (15% v/v in mineral oil, group 2–5) for a total of 28 days. At day 0, mice received subcutaneous treatment with compound 18a (15 mg/kg/dose, twice daily (BID), group 3), or corresponding vehicle control (23% HPBCD, twice daily (BID), groups 1 and 2)], or received daily gavage with either an ALK5/ALK4 kinase inhibitor [SM 16 (45 mg/kg/dose, PO, QD, group 5) or its corresponding vehicle control (β-cyclodextrin sulfobutyl ether sodium salt or captisol, PO, QD, group 4)]. Plasma samples were collected by a tail vein bleed at day 7. At day 28, mice were sacrificed using CO2 and additional plasma samples and liver lobes were collected. As a primary endpoint collagen surface area was determined on cross-sections of the lateral left lobe by picro sirius red (PSR) staining. As a secondary endpoint collagen content (hydroxyproline) of the left median lobe was analyzed using a chromogenic assay according to the manufacturer’s instructions (QuickZyme Biosciences, Leiden, The Netherlands).

With `Cc1cccc(-c2[nH]c(C34CCC(C(N)=O)(CC3)CC4)nc2-c2ccc3c(c2)OCO3)n1` [SM 16, reference compound], in assay [1], the “plasma CXCL12 levels” value is on record as “no further increase of plasma CXCL12 was observed”. Also, the “liver fibrosis: PSR-positive area and hydroxyproline content” value in assay [2] is given as “significantly attenuated liver fibrosis”.
